From US8906888B2, “Low-calcemic 16,23-diene 25-oxime analogs of 1α,25-dihydroxy vitamin D3” (Cytochroma Inc., priority 2005, dated 2014)

Assays:
[1] = Pharmacokinetics after i.v. administration in rats; type: in vivo; details: rat, iv, male Wistar rats, 16 mg/kg B.W.
Protocol: A formulation of compound (20R)-I(e) dissolved in saline (0.9% NaCl): propylene glycol:ethanol (5:3:2; v/v/v) was prepared at a concentration of 20 mg/ml.
Nine male Wistar rats (150-200 g) were fasted 8 hours prior to the initiation of the study. At the initiation of the study, the nine rats received 0.8 ml/kg body weight (B.W.) of the dosing formulation by intravenous (i.v.) injection to deliver 16 mg of compound (20R)-I(e)/kg B.W. Blood was collected from three animals at 0 (day-1), 5, 15, 30, 60, 120, 180 and 240 minutes post dosing. At each time point, 1 ml of blood was collected from the orbital sinus in unpreserved Microtainer tubes. Separated serum samples were kept frozen at −80° C. until analysis. The concentration of compound (20R)-I(e) in the serum samples was quantified using a High Performance Liquid Chromatographic method with Mass Spectroscopy detection (LC MS/MS). An internal standard was added to an aliquot of […] of serum sample and extracted using solid phase extraction (SPE). Samples were passed through C18-SPE cartridges then compound (20R)-I(e) and the internal standard were eluted with 1 ml of methanol. Extracts were evaporated to dryness under nitrogen. The residues were reconstituted in […] of methanol:water (8:2; v/v) and analyzed by LC MS/MS. (iii) Results: Summary of the calculated pharmacokinetic parameters for the i.v. administration of a 16 mg/kg B.W. dose of compound (20R)-I(e) is in the Table below. The Area-Under-Curve (AUC) was calculated from T=0 to 240 min. The maximum concentration (Cmax) was determined from the mean serum concentration versus time profile. The elimination half life (T1/2) was calculated from the elimination phase of the concentration versus time profile assuming first order kinetic elimination.

CYP27A1 = molecular target: T1, CYP27A1 (Homo sapiens, UniProt Q02318); assay: CYP27A1 enzyme assay; type: biochemical; details: read-out: IC50 in the inhibition of CYP27A1
T1 sequence (Q02318 34-531): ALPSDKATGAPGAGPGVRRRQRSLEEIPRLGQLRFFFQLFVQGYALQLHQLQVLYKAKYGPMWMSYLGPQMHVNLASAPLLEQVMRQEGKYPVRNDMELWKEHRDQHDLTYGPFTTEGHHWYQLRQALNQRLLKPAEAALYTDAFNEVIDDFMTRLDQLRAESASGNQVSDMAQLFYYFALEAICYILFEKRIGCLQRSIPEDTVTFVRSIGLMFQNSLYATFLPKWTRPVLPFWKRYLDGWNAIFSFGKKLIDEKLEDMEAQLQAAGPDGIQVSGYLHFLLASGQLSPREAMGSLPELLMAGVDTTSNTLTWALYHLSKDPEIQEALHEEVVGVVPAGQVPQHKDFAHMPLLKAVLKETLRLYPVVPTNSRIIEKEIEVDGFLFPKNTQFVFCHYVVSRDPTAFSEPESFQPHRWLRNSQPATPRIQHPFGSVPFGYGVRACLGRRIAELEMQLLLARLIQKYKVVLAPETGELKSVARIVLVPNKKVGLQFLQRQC

MCF-7 cells = assay: [3H]-Thymidine proliferation assay with MCF-7 cells; type: cell-based; details: breast cancer cells, 3 days, 3H-thymidine incorporation
Protocol: 1. Preparation of Cell Suspension. • When MCF-7 cells were 70-80% confluent, aspirated growth media. Washed the cells with 1×PBS. Trypsinized with trypsin-EDTA from the plate, collected cells from the tissue culture flask, centrifuged (500×g, 5 min) and resuspended in growth media.
2. Cell Plating. • Counted the cells and adjusted the cell density to 25,000/ml. Added 200 μl per well in a 96 well plate. Incubated plate for 24 h at 37° C. in a humidified atmosphere plus 5% CO2. Aspirated used media and replaced with 175 μl per well with proliferation media.
(§1) 3. Substrate Addition. • Added 25 μl of compound (final concentration 10^−7 M, 5×10^−8 M, 10^−8 M, 5×10^−9 M, 10^−10 M or 0 M) into each designated well. Incubated plates for 3 days at 37° C. in a humidified atmosphere plus 5% CO2.
(§2) 4. ^3H-Thymidine Incorporation. • Added ^3H-thymidine at 0.02 μCi per well and incubated at 37° C. in a humidified atmosphere plus 5% CO2 for 6 h.
5. Plate Harvesting. • Aspirated all media and washed cells with 1×PBS. Trypsinized cells for 30 min at 37° C. in a humidified atmosphere plus 5% CO2. Harvested cells onto a 96 well filter plate (Millipore) using a Tomtec Cell Harvestor, according to manufacturers instructions.
6. Scintillation Counting. • Added 25 μl of scintillation fluid per well. Counted the plate using a scintillation counter. Results: Compound (20R)-I(e) inhibited MCF-7 cell proliferation.

LNCaP cells = assay: [3H]-Thymidine proliferation assay with LNCaP cells; type: cell-based; details: prostate cancer cells, 3 days, 3H-thymidine incorporation
Protocol: 1. Preparation of Cell Suspension. • When LNCaP cells were 70-80% confluent, aspirated media. Washed the cells with 1×PBS. Trypsinized with trypsin-EDTA from the plate, collected cells from the tissue culture flask, centrifuged (500×g, 5 min) and resuspended in media.
2. Cell Plating. • Counted the cells and adjusted the cell density to 2,000/ml. Added 200 μl per well in a 96 well plate. Incubated plate for 24 h at 37° C. in a humidified atmosphere plus 5% CO2. Aspirated used media and replace with 175 μl per well with media.
as §1, §2
5. Plate Harvesting. • Aspirated all media. Trypsinized cells for 30 min at 37° C. in a humidified atmosphere plus 5% CO2. Harvested cells onto a 96 well filter plate (Millipore) using a Tomtec Cell Harvestor, according to manufacturers instructions.
6. Scintillation Counting. • Added 25 μl of scintillation fluid per well. Counted the plate using a scintillation counter. Results: Compound (20R)-I(e) inhibited LNCaP cell proliferation.

Q: For `C=C1/C(=C\C=C2/CCC[C@]3(C)C([C@H](C)C/C=C/C(=NOC)C(C)(C)C)=CC[C@@H]23)C[C@@H](O)C[C@@H]1O` [(20R)-I(e)], which Cmax ([1]; mean serum concentration) is on record?
A: 38.9 ng/mL

Q: What about the AUC ([1]; serum, T=0 to 240 min) of the same molecule?
A: 39.6 ng·h/mL

Q: What about the half-life ([1]; serum, first order elimination assumed, read-out: T1/2 (elimination half life) (converted)) of the same molecule?
A: 15 min

Q: And the IC50 (CYP27A1)?
A: > 1000 nM

Q: And the “Inhibition of MCF-7 cell proliferation” value (MCF-7 cells)?
A: inhibited

Q: And the “Inhibition of LNCaP cell proliferation” value (LNCaP cells)?
A: inhibited
